The source of these data is BindingDB's records for doi:10.1021/acs.jmedchem.9b01508 (Virginia Tech, 2020).

The EC50 is the concentration that produces a half-maximal response.

A short description of this assay: Inhibition of human SphK2 expressed in Saccharomyces cerevisiae KYA1 assessed as yeast growth measured after 24 hrs.

Molecules are shown by their SMILES.

Take `N=C(N)N1CCC[C@H]1c1nc(-c2ccc(OCc3ccc(C(F)(F)F)cc3)c(C(F)(F)F)c2)no1`: the EC50 was determined as 59 nM.
The value for `CCCc1cc(-c2noc([C@@H]3CCCN3C(=N)N)n2)ccc1OCc1ccc(C(F)(F)F)cc1` was 37 nM; that for `N=C(N)N1CCC[C@H]1c1nc(-c2ccc(OCc3ccc(C(F)(F)F)cc3)c(C3CC3)c2)no1` was 50 nM.
Take `CCc1cc(-c2noc([C@@H]3CCCN3C(=N)N)n2)ccc1OCc1ccc(C(F)(F)F)cc1`: the concentration for a half-maximal effect (EC50) was 146 nM.
For the compound `CC(C)c1cc(-c2noc([C@@H]3CCCN3C(=N)N)n2)ccc1OCc1ccc(C(F)(F)F)cc1`, the EC50 came to 32 nM.
The value for `CC(C)(C)c1cc(-c2noc([C@@H]3CCCN3C(=N)N)n2)ccc1OCc1ccc(C(F)(F)F)cc1` was 73 nM; that for `C=CCc1cc(-c2noc([C@@H]3CCCN3C(=N)N)n2)ccc1OCc1ccc(C(F)(F)F)cc1` was 84 nM.
